Measured values reported in patent US20050137209A1, “Treatment of neurologic disorders with inhibitors of 11beta-HSD1” (AGY Therapeutics, Inc., priority 2003, published 2005).

Experiments:
[1] = target: T1, human 11βHSD2 (Homo sapiens, UniProt P80365); settings: cited from earlier work
T1 sequence (P80365 1-405): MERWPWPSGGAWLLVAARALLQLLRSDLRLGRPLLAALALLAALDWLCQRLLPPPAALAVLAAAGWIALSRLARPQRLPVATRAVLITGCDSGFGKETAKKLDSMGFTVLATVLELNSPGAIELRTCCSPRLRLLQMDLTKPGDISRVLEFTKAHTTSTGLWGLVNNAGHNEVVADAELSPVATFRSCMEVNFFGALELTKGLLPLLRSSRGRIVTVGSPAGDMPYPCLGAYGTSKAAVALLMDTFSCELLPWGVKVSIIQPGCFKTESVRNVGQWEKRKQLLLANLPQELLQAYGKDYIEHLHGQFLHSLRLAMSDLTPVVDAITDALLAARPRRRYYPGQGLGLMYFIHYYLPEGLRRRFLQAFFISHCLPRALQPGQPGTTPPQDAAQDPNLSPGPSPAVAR

[2] = system: middle cerebral artery occlusion (MCAO) brain infarction; assay: MCAO transient focal ischemia, BVT 2733 (Example 1); type: in vivo; settings: rat, 90 min MCAO, bolus 90 mg/kg at 4.5 h and 8.5 h post-occlusion, 24 h reperfusion
Protocol: BVT 2733 was tested in the following MCAO protocol. A middle cerebral artery (MCA) occlusion was used to induce temporary cerebral ischemia. It involves anesthetizing the rat, making an incision in the ventral neck region to isolate the common carotid artery and the internal and external carotid arteries. […] A silicone-coated mono filament is then inserted into the external carotid artery and woven through the artery into the internal carotid until it can occlude blood flow to the middle cerebral artery (MCA). The filament is removed after 90 min. After removal of the filament, the external carotid stump is tied shut and the clamps removed to allow the return of blood flow to the brain. The incision will be closed with wound clips. Post surgery, animals are observed until recovery from anesthesia.
During the surgery, animals are kept on a thermostat-regulated heating pad to maintain the body and head temperatures at 37° C. […]
The body core temperature of the animal is measured regularly, up to 1 day of recovery in some animals. […] Temperatures are measured manually using a rectal probe. […]
After 24 hours of reperfusion, the animals are sacrificed. […] Infarction volume was measured by digital imaging and image analysis software. Infarction volumes are determined in cortex and striatum and expressed as a percentage of the total brain volume. […]

[3] = system: middle cerebral artery occlusion (MCAO) brain infarction; assay: MCAO transient focal ischemia, carbenoxolone (Example 2); type: in vivo, rat
Text: The method used is a middle cerebral artery (MCA) occlusion to induce temporary cerebral ischemia. It involves anesthetizing the rat, making an incision in the ventral neck region to isolate the common carotid artery and the internal and external carotid arteries. […] A silicone-coated mono filament is then inserted into the external carotid artery and woven through the artery into the internal carotid until it can occlude blood flow to the middle cerebral artery (MCA). The filament can then be tied in place (permanent occlusion) or removed after a short amount of time depending on the desired degree of ischemic damage (3 minutes to 2 hours). After removal of the filament, the external carotid stump is tied shut and the clamps removed to allow the return of blood flow to the brain. The incision was closed with wound clips. Post surgery, animals were observed until recovery from anesthesia. During the surgery, animals were kept on a thermostat-regulated heating pad to maintain the body and head temperatures at 37° C. To inhibit the blood from clotting 90 IU.kg^−1 Heparin was administered intravenously to the animal after occlusion of MCAO. The body core temperature of the animal was measured regularly, up to 1 day of recovery in some animals. […] Temperatures are measured manually using a rat probe. […] Infarction volume was measured by digital imaging and image analysis software. […]

Compound | IC50 [1] [µM] | neuroprotection (FIG. 1) [2] | infarction volume in cortex and striatum as percentage of total brain volume, versus vehicle ([2]; TTC staining) | neuroprotection ([3]; rat MCAO, carbenoxolone administered at 4 to 6 hours post-occlusion) | infarction volume in cortex and striatum as percentage of total brain volume, versus vehicle ([3]; rat, 90 min MCAO, bolus 20 mg at 5 min of reperfusion plus infusion 1.6 mg/h for 24 hours, TTC staining)
Cc1c(Cl)cccc1S(=O)(=O)Nc1nc(CC(=O)N2CCN(C)CC2)cs1 [BVT 2733, 3-Chloro-2-methyl-N-{4-[2-(4-methyl-piperazin-1-yl)-2-oxo-ethyl]-thiazol-2-yl}-benzenesulfonamide] | > 10 | potent and significant neuroprotection | smaller infarction compared to vehicle treated rats | – | –
CC1(C)[C@@H](OC(=O)CCC(=O)O)CC[C@]2(C)[C@H]3C(=O)C=C4[C@@H]5C[C@@](C)(C(=O)O)CC[C@]5(C)CC[C@@]4(C)[C@]3(C)CC[C@@H]12 [carbenoxolone] | – | – | – | potent neuroprotection | smaller infarction compared to vehicle treated rats
